Assay results as given in patent US8507533B2, “Glucagon receptor modulators” (Pfizer Inc., priority 2011, dated 2013).

Key:
human glucagon receptor [1] = biological target: T1, human glucagon receptor (Homo sapiens (Human), UniProt P47871); experiment: Glucagon cAMP Assay (Cisbio cAMP detection); format: cell-based; settings: CHOK1 cells stably transfected with the human glucagon receptor; block of glucagon induced cAMP production; Kb by modified Cheng-Prusoff equation
Protocol: The Cisbio cAMP detection assay is used to determine the ability of punitive glucagon antagonist to block glucagon induced cAMP production. Potential glucagon antagonists are re-suspended and diluted in 100% DMSO. Prior to use in the Glucagon cAMP assay 100×DMSO compound stocks are diluted 20× with DMEM-F12 media (Invitrogen) containing either 0.1% or 4% BSA. […] 2 μls of 5% DMSO or known glucagon antagonist are added to each plate to define the assay window. CHOK1 cells stably transfected with the human glucagon receptor are removed from culture flasks with cell dissociation buffer. Cell pellets are re-suspended, at a concentration of 8.3e^5 cells/ml in DMEM-F12 with or without 4% BSA and 200 uM IBMX. 6 μls of cell suspensions are added to the assay plates. Plates are incubated for 20 min at room temperature prior to the addition of a 100 μM challenge dose of glucagon. On a separate plate glucagon dose response curves are run to determine the EC50 of glucagon. After a 30 min room temperature incubation the reaction is terminated by the addition of lysis buffer containing the cAMP detection reagents. Plates are incubated for an additional 60 min at room temperature prior to being read on the Perkin Elmer fluorescent plate reader. Raw is converted to nM of cAMP produced based on a cAMP standard curve. Converted data is then analyzed using the Pfizer data analysis program. IC50 values are determined from the generated sigmoidal dose response curves. Kb values are calculated using a modified Cheng-Prusoff equation. N is the number of times the compound was assayed.

human glucagon receptor [2] = biological target: T1, human glucagon receptor; experiment: Human Glucagon SPA Assay (binding of [125I]Glucagon-Cex); settings: membrane from chem-1 cells stably transfected with the human glucagon receptor, Ki by Cheng-Prusoff equation
Protocol: The Glucagon SPA assay is used to determine the ability of test compounds to block the binding of glucagon-cex to the glucagon receptor. Test compounds are re-suspended and serially diluted in 100% DMSO. 1 μl of test compound at the desired concentrations is spotted into the appropriate wells of 96 well low binding white clear bottom plate (Corning). 1 μl of DMSO is spotted into total binding wells. 1 μl of a known glucagon antagonist at a concentration of 20 μM is added to non specific binding wells. […] All assay ingredients with the exception of test compounds are re-suspended in the following buffer; 50 mM Hepes pH 7.4; 5 mM MgCl2; 1 mM CaCl; 5% glycerol and 0.2% BSA. Following a 6-10 hr incubation at room temperature the amount of hot ligand bound to the cell membranes is determined by reading the plates on a Wallac Trilux radioactive emission detector. Data is analyzed using Pfizer's Data analysis program. IC50 values are then determined from the generated sigmoidal dose response curves. Ki values are calculated using Cheng-Prusoff equation. N is the number of times the compound was assayed.

T1 sequence (P47871 26-477): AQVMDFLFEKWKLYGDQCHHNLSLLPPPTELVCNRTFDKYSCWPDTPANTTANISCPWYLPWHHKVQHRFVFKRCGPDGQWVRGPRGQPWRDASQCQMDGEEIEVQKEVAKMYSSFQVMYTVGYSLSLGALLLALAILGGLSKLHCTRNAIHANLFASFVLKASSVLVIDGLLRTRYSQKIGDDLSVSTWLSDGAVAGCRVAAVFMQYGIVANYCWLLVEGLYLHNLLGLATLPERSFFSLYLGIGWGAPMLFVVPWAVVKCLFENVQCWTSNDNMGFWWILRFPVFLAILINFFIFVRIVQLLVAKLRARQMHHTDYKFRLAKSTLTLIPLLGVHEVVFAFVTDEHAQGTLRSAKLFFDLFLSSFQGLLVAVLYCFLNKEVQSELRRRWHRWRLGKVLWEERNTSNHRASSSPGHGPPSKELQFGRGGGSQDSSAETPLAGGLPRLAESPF

Compound	Kb (human glucagon receptor [1]) [nM]	Ki (human glucagon receptor [2]) [nM]
CCCC(Oc1ccc(-n2cc(Cl)c(C)n2)cc1)c1ccc(C(=O)NCCC(=O)O)cc1 (racemic) [Example 22, (+/−)-3-(4-(1-(4-(4-chloro-3-methyl-1H-pyrazol-1-yl)phenoxy)butyl)benzamido)propanoic acid]	835	665
CCCCc1ccn(-c2ccc(OC(CCC)c3ccc(C(=O)NCCC(=O)O)cc3)cc2)n1 (racemic) [Example 31, (+/−)-3-(4-(1-(4-(3-butyl-1H-pyrazol-1-yl)phenoxy)butyl)benzamido)propanoic acid]	1450	1330
CCCC(Oc1ccc(-c2cc(C(F)(F)F)nn2C)cc1)c1ccc(C(=O)NCCC(=O)O)cc1 (racemic) [Example 53, (+/−)-3-(4-(1-(4-(1-methyl-3-(trifluoromethyl)-1H-pyrazol-5-yl)phenoxy)butyl)benzamido)propanoic acid]	2610	556
Cc1cc(NC(CC(C)C)c2ccc(C(=O)NCCC(=O)O)cc2)cnc1-n1cc(C(F)(F)F)cn1 (racemic) [Example 105, (+/−)-3-(4-(3-methyl-1-(5-methyl-6-(4-(trifluoromethyl)-1H-pyrazol-1-yl)pyridin-3-ylamino)butyl)benzamido)propanoic acid]	455	69.8
O=C(O)CCNC(=O)c1ccc(C(CC2CC2)Nc2ccc(-n3cc(C(F)(F)F)cn3)nc2)cc1 (racemic) [Example 107, (+/−)-3-(4-(2-cyclopropyl-1-(6-(4-(trifluoromethyl)-1H-pyrazol-1-yl)pyridin-3-ylamino)ethyl)benzamido)propanoic acid]	252	71.6
O=C(O)CCNC(=O)c1ccc(C(Oc2ccc(-n3cc4ccccc4n3)cc2)C2CCCC2)cc1 (racemic) [Example 119, (+/−)-3-(4-((4-(2H-indazol-2-yl)phenoxy)(cyclopentyl)methyl)benzamido)propanoic acid]	67	103
CCCC(Oc1cnc(-n2cc(C(F)(F)F)cn2)c(C)c1)c1ccc(C(=O)NCCC(=O)O)cc1 (racemic) [Example 150, (+/−)-3-(4-(1-(5-methyl-6-(4-(trifluoromethyl)-1H-pyrazol-1-yl)pyridin-3-yloxy)butyl)benzamido)propanoic acid]	1640	446
Cc1cc(OC(c2ccc(C(=O)NCCC(=O)O)cc2)C2CCC2)cc(C)c1-n1cc(C(F)(F)F)cn1 (racemic) [Example 151, (+/−)-3-(4-(cyclobutyl(3,5-dimethyl-4-(4-(trifluoromethyl)-1H-pyrazol-1-yl)phenoxy)methyl)benzamido)propanoic acid]	227	20.2
Cc1cc(OC(c2ccc(C(=O)NCCC(=O)O)cc2)C2CC(C)(C)C2)cc(C)c1-n1cc(C(F)(F)F)cn1 (racemic) [Example 152, (+/−)-3-(4-((3,5-dimethyl-4-(4-(trifluoromethyl)-1H-pyrazol-1-yl)phenoxy)(3,3-dimethylcyclobutyl)methyl)benzamido)propanoic acid]	301	35.2
CCCC(Oc1cc(C)c(-n2cc(C(F)(F)F)cn2)c(OC)c1)c1ccc(C(=O)NCCC(=O)O)cc1 (racemic) [Example 153, (+/−)-3-(4-(1-(3-methoxy-5-methyl-4-(4-(trifluoromethyl)-1H-pyrazol-1-yl)phenoxy)butyl)benzamido)propanoic acid]	225	32.3
CCCC(Nc1ccc(-n2cnc(-c3ccccc3)c2)nc1)c1ccc(C(=O)NCCC(=O)O)cc1 (racemic) [Example 162, (+/−)-3-(4-(1-(6-(4-phenyl-1H-imidazol-1-yl)pyridin-3-ylamino)butyl)benzamido)propanoic acid]	55.8	47.3
CCCC(Nc1ccc(-n2cc(-c3ccccn3)cn2)nc1)c1ccc(C(=O)NCCC(=O)O)cc1 (racemic) [Example 164]	52.4	192
CCCC(Nc1ccc(-n2cc(-c3ccccc3)cn2)nc1)c1ccc(C(=O)N(C)CCC(=O)O)cc1 (racemic) [Example 165, (+/−)-3-(N-methyl-4-(1-(6-(4-phenyl-1H-pyrazol-1-yl)pyridin-3-ylamino)butyl)benzamido)propanoic acid]	305	142
CCCC(Oc1cc(F)c(-n2cc(C(F)(F)F)cn2)c(F)c1)c1ccc(C(=O)NCCC(=O)O)cc1 (racemic) [Example 184, (+/−)-3-(4-{1-[3,5-difluoro-4-(4-trifluoromethyl-pyrazol-1-yl)-phenoxy]-butyl}-benzoylamino)-propionic acid]	321	240
CCCC(Oc1ccc(-n2cc3cc(F)ccc3n2)cc1)c1ccc(C(=O)NCCC(=O)O)cc1 (racemic) [Example 185, (+/−)-3-(4-{1-[4-(5-fluoro-indazol-2-yl)-phenoxy]-butyl}-benzoylamino)-propionic acid]	175	137

The remaining lines, values ahead:

Kb (human glucagon receptor [1]) [nM]	Ki (human glucagon receptor [2]) [nM]	Compound
79.3	17	O=C(O)CCNC(=O)c1ccc(C(Nc2ccc(-n3cc(C(F)(F)F)cn3)nc2)C2CCCCC2)cc1 (racemic) [Example 101, (+/−)-3-(4-(cyclohexyl(6-(4-(trifluoromethyl)-1H-pyrazol-1-yl)pyridine-3-ylamino)methyl)benzamido)propanoic acid]
187	91.9	O=C(O)CCNC(=O)c1ccc(C(Nc2ccc(-n3cc(C(F)(F)F)cn3)nc2)C2CCC2)cc1 (racemic) [Example 106, (+/−)-3-(4-(cyclobutyl(6-(4-(trifluoromethyl)-1H-pyrazol-1-yl)pyridin-3-ylamino)methyl)benzamido)propanoic acid]
764	298	O=C(O)CCNC(=O)c1ccc(C(Nc2ccc(-n3cnc(C(F)(F)F)c3)nc2)C(F)(F)F)cc1 (racemic) [Example 121, (+/−)-3-(4-(2,2,2-trifluoro-1-(6-(4-(trifluoromethyl)-1H-imidazol-1-yl)pyridin-3-ylamino)ethyl)benzamido)propanoic acid]
43	45.7	CC(C)(C)c1cn(-c2ccc(NC(c3ccc(C(=O)NCCC(=O)O)cc3)C3CCCC3)cn2)cn1 (racemic) [Example 122, (+/−)-3-(4-((6-(4-tert-butyl-1H-imidazol-1-yl)pyridin-3-ylamino)(cyclopentyl)methyl)benzamido)propanoic acid]
629	235	O=C(O)CCNC(=O)c1ccc(C(Nc2ccc(-n3cnc(C(F)(F)F)c3)nc2)C2CC(F)(F)C2)cc1 (racemic) [Example 154, (+/−)-3-(4-((3,3-difluorocyclobutyl)(6-(4-(trifluoromethyl)-1H-imidazol-1-yl)pyridin-3-ylamino)methyl)benzamido)propanoic acid]
42.7	65.9	Cc1nn(-c2ccc(NC(c3ccc(C(=O)NCCC(=O)O)cc3)C3CCCC3)cn2)cc1Cl (racemic) [Example 163, (+/−)-3-(4-((6-(4-chloro-3-methyl-1H-pyrazol-1-yl)pyridin-3-ylamino)(cyclopentyl)methyl)benzamido)propanoic acid]
79.1	101	CCCC(Nc1ccc(-n2cc(C3CC3)cn2)nc1)c1ccc(C(=O)NCCC(=O)O)cc1 (racemic) [Example 176, (+/−)-N-[4-(1-{[6-(4-cyclopropyl-1H-pyrazol-1-yl)pyridin-3-yl]amino}butyl)benzoyl]-beta-alanine]
2340	432	O=C(O)CCNC(=O)c1ccc(C(Nc2ccc(-n3cc(C(F)(F)F)cn3)nc2)C2CCOCC2)cc1 (racemic) [Example 177, (±)-3-(4-((tetrahydro-2H-pyran-4-yl)((6-(4-(trifluoromethyl)-1H-pyrazol-1-yl)pyridin-3-yl)amino)methyl)benzamido)propanoic acid]
215	37.4	CC(C)(C)C(Nc1ccc(-n2cc(C(F)(F)F)cn2)nc1)c1ccc(C(=O)NCCC(=O)O)cc1 (racemic) [Example 178, (±)-3-(4-(2,2-dimethyl-1-((6-(4-(trifluoromethyl)-1H-pyrazol-1-yl)pyridin-3-yl)amino)propyl)benzamido)propanoic acid]
195	87.2	CC(C)(C)C(Nc1ccc(-n2cnc(C(F)(F)F)c2)nc1)c1ccc(C(=O)NCCC(=O)O)cc1 (racemic) [Example 181, (±)-3-(4-(2,2-dimethyl-1-((6-(4-(trifluoromethyl)-1H-imidazol-1-yl)pyridin-3-yl)amino)propyl)benzamido)propanoic acid]
